These results are taken from patent US20260354380A1, “PYRAZOLO PESTICIDAL COMPOUNDS” (BASF SE, priority 2022, published 2026).

Common to all, as to format: in vivo
One data set concerns Aedes aegypti. As to the kind of experiment: whole plant or invertebrate. Conditions: 800 ppm; larvae; 2 days. On the procedure:
Example B1: Action on Yellow Fever Mosquito (Aedes aegypti)
For evaluating control of yellow fever mosquito (Aedes aegypti) the test unit consisted of 96-well-microtiter plates containing 200 μl of tap water per well and 5-15 freshly hatched A. aegypti larvae.
The active compounds or mixtures were formulated using a solution containing 75% (v/V) water and 25% (v/v) DMSO. Different concentrations of formulated compounds or mixtures were sprayed onto the insect diet at 2.5 μl, using a custom-built micro atomizer, at two replications. For experimental mixtures in these tests identical volumes of both mixing partners at the desired concentrations respectively, were mixed together.
After application, microtiter plates were incubated at 28±1 °C, 80±5% RH for 2 days. Larval mortality was then visually assessed.

The subject of another data set is Anthonomus grandis. The data set is described as follows: Action on Boll Weevil (Anthonomus grandis). The conditions noted are these: 800 ppm; egg and larval mortality; 5 days. As for the experimental part: Example B3: Action on Boll Weevil (Anthonomus grandis)
For evaluating control of boll weevil (Anthonomus grandis) the test unit consisted of 96-well-microtiter plates containing an insect diet and 5-10 A. grandis eggs.
The compounds were formulated using a solution containing 75% (v/v) water and 25% (v/v) DMSO. Different concentrations of formulated compounds were sprayed onto the insect diet at 5 μl, using a custom-built micro atomizer, at two replications.
After application, microtiter plates were incubated at about 25±1 °C and about 75±5% relative humidity for 5 days. Egg and larval mortality were then visually assessed.

In the next data set the test system is Heliothis virescens. As to the kind of experiment: Action on Tobacco Budworm (Heliothis virescens). Conditions: 800 ppm; egg and larval mortality; 5 days. On the procedure:
Example B5: Action on Tobacco Budworm (Heliothis virescens)
For evaluating control of tobacco budworm (Heliothis virescens) the test unit consisted of 96-well-microtiter plates containing an insect diet and 15-25 H. virescens eggs.
The compounds were formulated using a solution containing 75% v/v water and 25% v/v DMSO. Different concentrations of formulated compounds were sprayed onto the insect diet at 10 μl, using a custom-built micro atomizer, at two replications.
After application, microtiter plates were incubated at about 28±1 °C and about 80±5% relative humidity for 5 days. Egg and larval mortality were then visually assessed.

The test system of the next data set is Plutella xylostella. The data set is described as follows: Action on Diamond Back Moth (Plutella xylostella), cabbage leaf dip, 3rd instar larvae. Conditions: 300 ppm; 3rd instar larvae; 72 hours after treatment. As for the experimental part:
Example B6: Action on Diamond Back Moth (Plutella xylostella)
The active compound is dissolved at the desired concentration in a mixture of 1:1 (v/v) distilled water:acetone. Surfactant (Kinetic® HV) is added at a rate of 0.01% (v/v). The test solution is prepared at the day of use.
Leaves of cabbage were dipped in test solution and air-dried. Treated leaves were placed in petri dishes lined with moist filter paper and inoculated with ten 3rd instar larvae. Mortality was recorded 72 hours after treatment. Feeding damages were also recorded using a scale of 0-100%.
(§1) Compounds disclosed in the document WO2021013561 were prepared according to procedures described therein and their pesticidal activities were determined by procedure analogues to the procedures as described above in examples B6 and B7.

The test system of another data set is Spodoptera eridania. As to the kind of experiment: Action on Southern Armyworm (Spodoptera eridania), 2nd Instar Larvae. The conditions noted are these: 300 ppm; 2nd instar larvae; 4 days after treatment. As for the experimental part: Example B7: Action on Southern Armyworm (Spodoptera eridania), 2nd Instar Larvae
The active compounds were formulated by a Tecan liquid handler in 100% cyclohexanone as a 10,000 ppm solution supplied in tubes. The 10,000 ppm solution was serially diluted in 100% cyclohexanone to make interim solutions. These served as stock solutions for which final dilutions were made by the Tecan in 50% acetone: 50% water (v/v) into 10 or 20 ml glass vials. A nonionic surfactant (Kinetic®) was included in the solution at a volume of 0.01% (v/v). The vials were then inserted into an automated electrostatic sprayer equipped with an atomizing nozzle for application to plants/insects.
Lima bean plants (variety Sieva) were grown 2 plants to a pot and selected for treatment at the 1st true leaf stage. Test solutions were sprayed onto the foliage by an automated electrostatic plant sprayer equipped with an atomizing spray nozzle. The plants were dried in the sprayer fume hood and then removed from the sprayer. Each pot was placed into perforated plastic bags with a zip closure. About 10 to 11 armyworm larvae were placed into the bag and the bags zipped closed. Test plants were maintained in a growth room at about 25 °C and about 20-40% relative humidity for 4 days, avoiding direct exposure to fluorescent light (24 hour photoperiod) to prevent trapping of heat inside the bags. Mortality and reduced feeding were assessed 4 days after treatment, compared to untreated control plants.
as §1

Consider `Cc1ccc(C(F)(F)F)c(N2C(=O)CS/C2=N\C(=O)Nc2ccc(-n3nc(C)c(NC(=O)c4ccc(OC(F)(F)F)cc4)c3C)cc2)c1` [Example C-16], for which the “mortality in comparison with untreated controls” value (from here on “mortality in comparison”) in the data set with Aedes aegypti is given as “at least 50%”; in the data set with Anthonomus grandis, “at least 75%”; in the data set on Heliothis virescens, “at least 75%”; with Plutella xylostella it was “at least 75%”; with Spodoptera eridania, “at least 75%”.
Consider `Cc1ccc(C(C)C)c(N2C(=O)CS/C2=N\C(=O)Nc2ccc(-n3cc(NC(=O)c4ccc(F)c(Cl)c4)c(C)n3)cc2)c1` [Example C-28], for which the “mortality in comparison” value is “at least 50%” in the data set on Aedes aegypti; “at least 75%” in the data set on Anthonomus grandis; “at least 75%” with Heliothis virescens; “at least 75%” with Plutella xylostella; “at least 75%” in the data set with Spodoptera eridania.
Consider `Cc1nn(-c2ccc(NC(=O)N=C3SCC(=O)N3c3ccccc3C(C)C)cc2)cc1NC(=O)c1ccc(OC(F)(F)F)cc1` [Example C-8], for which the “mortality in comparison” value is “at least 50%” in the data set with Aedes aegypti; “at least 75%” in the data set with Anthonomus grandis; “at least 75%” with Heliothis virescens; “at least 75%” in the data set with Plutella xylostella; “at least 75%” in the data set on Spodoptera eridania.
Turning to `Cc1ccc(C(C)C)c(N2C(=O)CS/C2=N\C(=O)Nc2ccc(-n3nc(C)c(NC(=O)c4ccc(OC(F)(F)F)cc4)c3C)cc2C2CC2)c1` [Example C-96], the “mortality in comparison” value is “at least 50%” in the data set on Aedes aegypti; “at least 75%” with Anthonomus grandis; “at least 75%” in the data set with Heliothis virescens; “at least 75%” in the data set on Plutella xylostella; “at least 75%” in the data set on Spodoptera eridania.
`Cc1ccc(C(C)C)c(N2C(=O)CS/C2=N\C(=O)Nc2ccc(-n3nc(C)c(NC(=O)c4ccc(OC(F)(F)F)cc4)c3C)cc2)c1` [Example C-15]: the “mortality in comparison” value is reported as “at least 50%” in the data set on Aedes aegypti; “at least 75%” in the data set with Anthonomus grandis; “at least 75%” with Heliothis virescens; “at least 75%” in the data set with Plutella xylostella; “at least 75%” in the data set on Spodoptera eridania.
With `Cc1ccc(C(C)C)c(N2C(=O)CSC2=NC(=O)Nc2ccc(-n3cc(NC(=O)c4ccc(C5(F)CC5)cc4)c(C)n3)cc2)c1` [Example C-88], the “mortality in comparison” value with Aedes aegypti is recorded as “at least 50%”; in the data set on Anthonomus grandis it was “at least 75%”; in the data set with Heliothis virescens, “at least 75%”; in the data set with Plutella xylostella it was “at least 75%”; in the data set with Spodoptera eridania, “at least 75%”.
Turning to `Cc1ccc(C(C)C)c(N2C(=O)CS/C2=N\C(=O)Nc2ccc(-n3cc(NC(=O)c4ccc(OC(F)(F)F)cc4)c(C)n3)cc2C#N)c1` [Example C-13], the “mortality in comparison” value is recorded as “at least 50%” in the data set on Aedes aegypti; “at least 75%” in the data set with Anthonomus grandis; “at least 75%” in the data set on Heliothis virescens; “at least 75%” in the data set on Plutella xylostella; “at least 75%” in the data set with Spodoptera eridania.
In the case of `Cc1ccc(C(C)C)c(N2C(=O)CS/C2=N\C(=O)Nc2ccc(-n3cc(NC(=O)c4ccc(Br)cc4)c(C)n3)cc2)c1` [Example C-30], the “mortality in comparison” value was “at least 50%” in the data set with Aedes aegypti; “at least 75%” with Anthonomus grandis; “at least 75%” in the data set with Heliothis virescens; “at least 75%” with Plutella xylostella; “at least 75%” with Spodoptera eridania.
For `Cc1ccc(C(C)C)c(N2C(=O)CS/C2=N\C(=O)Nc2ccc(-n3cc(NC(=O)c4ccc(CBr)cc4)c(C)n3)cc2)c1` [Example C-31], the “mortality in comparison” value in the data set with Aedes aegypti is reported as “at least 50%”; in the data set on Anthonomus grandis, “at least 75%”; in the data set with Heliothis virescens it was “at least 75%”; in the data set with Plutella xylostella, “at least 75%”; with Spodoptera eridania, “at least 75%”.
Take `Cc1ccc(C(C)C)c(N2C(=O)CS/C2=N\C(=O)Nc2ccc(-n3cc(NC(=O)c4cccs4)c(C)n3)cc2)c1` [Example C-95]: the “mortality in comparison” value is “at least 50%” with Aedes aegypti; “at least 75%” in the data set with Anthonomus grandis; “at least 75%” with Heliothis virescens; “at least 75%” in the data set with Plutella xylostella; “at least 75%” with Spodoptera eridania.
As for `Cc1ccc(C(C)C)c(N2C(=O)CSC2=NC(=O)Nc2ccc(-n3cc(NC(=O)c4ccc(S(=O)(=O)C(F)(F)F)cc4)c(C)n3)cc2)c1` [Example C-79], the “mortality in comparison” value in the data set on Aedes aegypti was “at least 50%”; in the data set on Anthonomus grandis, “at least 75%”; in the data set on Heliothis virescens it was “at least 75%”; in the data set with Plutella xylostella, “at least 75%”; in the data set on Spodoptera eridania, “at least 75%”.
With `C#Cc1ccc(C(=O)Nc2cn(-c3ccc(NC(=O)/N=C4\SCC(=O)N4c4cc(C)ccc4C(C)C)cc3)nc2C)cc1` [Example C-34], the “mortality in comparison” value is “at least 50%” in the data set on Aedes aegypti; “at least 75%” in the data set on Anthonomus grandis; “at least 75%” in the data set on Heliothis virescens; “at least 75%” in the data set with Plutella xylostella; “at least 75%” in the data set with Spodoptera eridania.
As for `Cc1ccc(C(C)C)c(N2C(=O)CS/C2=N\C(=O)Nc2ccc(-n3cc(NC(=O)c4ccc(C#N)cc4Cl)c(C)n3)cc2)c1` [Example C-35], the “mortality in comparison” value in the data set on Aedes aegypti is reported as “at least 50%”; in the data set with Anthonomus grandis, “at least 75%”; in the data set on Heliothis virescens, “at least 75%”; in the data set on Plutella xylostella it was “at least 75%”; with Spodoptera eridania, “at least 75%”.
`Cc1ccc(C(C)C)c(N2C(=O)CSC2=NC(=O)Nc2ccc(-n3cc(NC(=O)c4ccncc4)c(C)n3)cc2)c1` [Example C-59]: the “mortality in comparison” value in the data set with Aedes aegypti was “at least 50%”; with Anthonomus grandis, “at least 75%”; in the data set on Heliothis virescens, “at least 75%”; in the data set on Plutella xylostella it was “at least 75%”; with Spodoptera eridania, “at least 75%”.
Regarding `Cc1ccc(C(C)C)c(N2C(=O)CSC2=NC(=O)Nc2ccc(-n3cc(NC(=O)c4csc(Cl)n4)c(C)n3)cc2)c1` [Example C-43], the “mortality in comparison” value was “at least 50%” in the data set on Aedes aegypti; “at least 75%” with Anthonomus grandis; “at least 75%” with Heliothis virescens; “at least 75%” in the data set on Plutella xylostella; “at least 75%” in the data set on Spodoptera eridania.
